Results taken from patent US6498145B1, “Use of purified SDG as a hypotensive (vasodilator) agent” (University of Saskatchewan Technologies Incorporated, priority 2000, dated 2002).

Key:
Assay type in all cases: in vivo, rat
[1] = system: anesthetized normotensive rats; test: Blood pressure and heart rate of anesthetized normotensive rats, SDG intravenously; settings: for maximum fall in mean B.P.: 15 minutes after administration
Procedure: The effects of SDG in the doses of 10 mg, 15 mg, 20 mg and 30 mg/kg given intravenously were investigated on the blood pressure (B.P.) and heart rate of anesthetized normotensive rats. The number of rats used were 8, 3, 9, and 3 respectively for the doses of SDG (10 mg, 15 mg, 20 mg and 30 mg/kg body wt.). The maximum fall in mean B.P. were approximately 38%, 29%, 46% and 57% with 10 mg, 15 mg, 20 mg and 30 mg/kg dose of SDG respectively at 15 minutes after administration of SDG. After 15 minutes the blood pressure tended to recover but the recovery was not complete. The mean blood pressure at the end of three hours after SDG administration were approximately 25% lower than control values. The changes in the systolic and diastolic pressure were similar to the mean blood pressure with various doses of SDG. […] One would expect a very long duration of hypotensive effect when SDG is given orally.

[2] = system: anesthetized normotensive rats; test: Hypotensive effect of SDG after premedication with blockers/inhibitors in anesthetized normotensive rats
Procedure: FIG. 5 is a graph showing changes in the mean arterial blood pressure (B.P.) with SDG (20 mg/kg, intravenously) in the absence or presence of methylene blue (MB) (0.5 mg/kg); methylene blue was given 15 minutes prior to administration of SDG and results are expressed as mean±S.E. *p<0.05, comparison of values at various times with respect to “0” time.
FIG. 9 is a graph showing effects of SDG in the absence or presence of pyrilamine on the mean arterial blood pressure (B.P.) in anesthetized normotensive rats. Pyrilamine was given 15 minutes before administration of SDG. The results are expressed as mean±S.E. *p<0.05, comparison of values at various times with respect to “0” time.
Heart rate was not affected by methylene blue (FIG. 8).

[3] = system: angiotensin converting enzyme (ACE); test: Angiotensin I-induced rise in blood pressure before and after SDG; settings: SDG 10 mg/kg intravenously
Procedure: Further experiments were conducted to determine if the SDG-induced fall in the blood pressure is mediated through inhibition of angiotensin converting enzyme (ACE). Angiotensin I is converted to angiotensin II which is vasoconstrictor and raises blood pressure. If SDG lowers blood pressure by inhibiting ACE, then SDG would reduce/prevent the angiotensin I-induced rise in the blood pressure. Experiments were conducted in six normotensive Sprague-Dawley rats. […] However, the effects of angiotensin on arterial pressure of untreated rats remained unaltered. SDG (10 mg/kg) produced a marked fall in the mean arterial pressure.

angiotensin II receptor = test: Angiotensin II response on arterial pressure before and after SDG; settings: SDG 10 mg/kg intravenously
Procedure: To determine if the SDG-induced fall in the blood pressure is mediated through the blockade of angiotensin II receptor, experiments were carried out in normotensive Sprague-Dawley rats. Effects of angiotensin II (0.2 μg/kg, I.V.) given before and after 15 minutes, 30 minutes and 60 minutes of SDG (10 mg/kg) administered intravenously were investigated on the arterial pressure of six anesthetized Sprague-Dawley rats. […] The response of angiotensin II on the mean arterial pressure in untreated rats remained unaltered.

[4] = system: anesthetized spontaneous hypertensive rats (SHR); test: Blood pressure of anesthetized spontaneous hypertensive rats, SDG intravenously
Procedure: (§1) The effects of SDG on the arterial pressure of anesthetized spontaneous hypertensive rats (SHR) were investigated to determine (a) if it is effective in lowering blood pressure to the same extent as in normotensive Sprague-Dawley rats; (b) if it is effective when given by intraperitoneal route; (c) if the effect is dose-dependent.
(i) Effects of SDG in the doses of 1 mg, 3 mg and 15 mg/kg given intravenously were investigated on the blood pressures of anesthetized spontaneous hypertensive rats (SHR). The maximum fall in the blood pressure occurred between 15 to 30 minutes of SDG administration after which the blood pressure tended to recover. However, the recovery was short lived. The percent decreases in blood pressures at 30 minutes after SDG were 19, 25 and 31 respectively with 1 mg, 3 mg and 15 mg/kg of SDG. At the end of 4 hours of SDG treatment, the percent decreases were 34, 43 and 36 respectively with 1 mg, 3 mg and 15 mg dose. The fall in the blood pressure initially (at 15 minutes) was maximum with high dose of SDG.

[5] = system: anesthetized spontaneous hypertensive rats (SHR); test: Blood pressure of anesthetized spontaneous hypertensive rats, SDG intraperitoneally; settings: for maximum fall in the blood pressure: 30 minutes; for percent decrease in blood pressures: end of four hours
Procedure: as §1
(ii) Effects of SDG in the doses of 5 mg, 10 mg, 50 mg and 200 mg/kg given intraperitoneally were investigated on blood pressure of anesthetized SHR for four hours. The maximum fall in the blood pressure were approximately 7, 37, 50 and 48% respectively with 5 mg, 10 mg, 50 mg and 200 mg of SDG at 30 minutes. At the end of four hours of SDG administration the percent decreases in blood pressures were 31, 42, 39 and 37 respectively with these four doses of SDG.

[6] = system: anesthetized spontaneous hypertensive rats; test: Blood pressure of anesthetized spontaneous hypertensive rats, SDG orally; settings: SHR, 100 mg/kg orally
Procedure: (iii) Effects of SDG (100 mg/kg body wt.) given orally were investigated on the blood pressure of anesthetized spontaneous hypertensive rats for four hours. The blood pressures began falling at 15 minutes of SDG administration and maximum fall occurred after three hours. The decreases were of similar magnitude for systolic, diastolic and mean arterial pressures. The systolic, diastolic and mean arterial pressures respectively were 243 mmHg, 176 mmHg and 198 mmHg before administration of SDG. SDG reduced the blood pressure by approximately 25%.

[7] = normotensive Sprague-Dawley rats

COc1cc(C[C@@H](CO[C@@H]2O[C@H](CO)[C@@H](O)[C@H](O)[C@H]2O)[C@H](CO[C@@H]2O[C@H](CO)[C@@H](O)[C@H](O)[C@H]2O)Cc2ccc(O)c(OC)c2)ccc1O [SDG, secoisolariciresinol diglucoside]
maximum fall in mean B.P. ([1]; 10 mg/kg intravenously, normotensive rats): approximately 38%
maximum fall in mean B.P. ([1]; 15 mg/kg intravenously, normotensive rats): ~29%
maximum fall in mean B.P. ([1]; 20 mg/kg intravenously, normotensive rats): ~46%
maximum fall in mean B.P. ([1]; 30 mg/kg intravenously, normotensive rats): ~57%
heart rate ([1]; any dose (10-30 mg/kg intravenously), normotensive rats): not significantly altered
mean blood pressure lower than control values ([1]; end of three hours after SDG administration, 10-30 mg/kg intravenously): approximately 25%
hypotensive effect of SDG after premedication with NG-monomethyl-L-arginine ([2]; NG-monomethyl-L-arginine (inhibitor of nitric oxide synthase)): not prevented
hypotensive effect of SDG in presence of methylene blue ([2]; SDG 20 mg/kg intravenously, methylene blue 0.5 mg/kg 15 minutes prior): completely prevented
heart rate in presence of pyrilamine ([2]; SDG with pyrilamine): practically unchanged
hypotensive effect of SDG after premedication with atropine ([2]; atropine (acetylcholine receptor blocker)): not prevented
hypotensive effect of SDG after premedication with indomethacin ([2]; indomethacin (inhibitor of cyclooxygenase)): not prevented
hypotensive effect of SDG in presence of pyrilamine ([2]; pyrilamine (histamine receptor blocker) 15 minutes before SDG): partly prevented
mean arterial pressure [3, 7]: marked fall
response of angiotensin I on the mean arterial pressure ([3]; angiotensin I 0.2 μg/kg intravenously, Sprague-Dawley rats, 60 minutes): marked reduction
mean arterial pressure (angiotensin II receptor; [7]): reduced the mean arterial pressure
angiotensin II response on arterial pressure (angiotensin II receptor; angiotensin II 0.2 μg/kg I.V., 15, 30, 60 minutes): moderately reduced
percent decrease in blood pressures ([4]; 1 mg/kg intravenously, 30 minutes after SDG): 19%
percent decrease in blood pressures ([4]; 1 mg/kg intravenously, end of 4 hours): 34%
percent decrease in blood pressures ([4]; 3 mg/kg intravenously, 30 minutes after SDG): 25%
percent decrease in blood pressures ([4]; 3 mg/kg intravenously, end of 4 hours): 43%
percent decrease in blood pressures ([4]; 15 mg/kg intravenously, 30 minutes after SDG): 31%
percent decrease in blood pressures ([4]; 15 mg/kg intravenously, end of 4 hours): 36%
time of maximum fall in the blood pressure ([4]; 1-15 mg/kg intravenously): 15 to 30 min
maximum fall in the blood pressure ([5]; 5 mg/kg intraperitoneally): approximately 7%
percent decrease in blood pressures ([5]; 5 mg/kg intraperitoneally): 31%
maximum fall in the blood pressure ([5]; 10 mg/kg intraperitoneally): ~37%
percent decrease in blood pressures ([5]; 10 mg/kg intraperitoneally): 42%
maximum fall in the blood pressure ([5]; 50 mg/kg intraperitoneally): ~50%
percent decrease in blood pressures ([5]; 50 mg/kg intraperitoneally): 39%
maximum fall in the blood pressure ([5]; 200 mg/kg intraperitoneally): ~48%
percent decrease in blood pressures ([5]; 200 mg/kg intraperitoneally): 37%
time at which blood pressures began falling [6]: 15 min
reduction of blood pressure ([6]; observed for four hours, systolic, diastolic and mean similar): approximately 25%
